Source: patent publication US8278306B2 (Vertex Pharmaceuticals Incorporated, priority 2006, dated 2012)

Columns and labels:
ROCK I (AA 6-553) = target: T1, ROCK I (AA 6-553) (Homo sapiens, UniProt Q13464); experiment: ROCK inhibition assay, standard coupled enzyme system; type: biochemical; settings: 45 nM ROCK I, 45 μM ATP, 200 μM peptide, 30° C.
T1 construct: ROCK I (AA 6-553)
Method: Reactions were carried out in a solution containing 100 mM HEPES (pH 7.5), 10 mM MgCl2, 25 mM NaCl, 2 mM DTT and 1.5% DMSO.

CYP1A2 = target: T2, CYP1A2 (Homo sapiens, UniProt P05177); experiment: Cytochrome P450 isozyme inhibition, fluorescent Vivid substrate; type: in vitro ADME; settings: 5 nM CYP1A2, 2 μM Vivid 1A2 Blue, 60 minutes
T2 sequence (P05177 1-516): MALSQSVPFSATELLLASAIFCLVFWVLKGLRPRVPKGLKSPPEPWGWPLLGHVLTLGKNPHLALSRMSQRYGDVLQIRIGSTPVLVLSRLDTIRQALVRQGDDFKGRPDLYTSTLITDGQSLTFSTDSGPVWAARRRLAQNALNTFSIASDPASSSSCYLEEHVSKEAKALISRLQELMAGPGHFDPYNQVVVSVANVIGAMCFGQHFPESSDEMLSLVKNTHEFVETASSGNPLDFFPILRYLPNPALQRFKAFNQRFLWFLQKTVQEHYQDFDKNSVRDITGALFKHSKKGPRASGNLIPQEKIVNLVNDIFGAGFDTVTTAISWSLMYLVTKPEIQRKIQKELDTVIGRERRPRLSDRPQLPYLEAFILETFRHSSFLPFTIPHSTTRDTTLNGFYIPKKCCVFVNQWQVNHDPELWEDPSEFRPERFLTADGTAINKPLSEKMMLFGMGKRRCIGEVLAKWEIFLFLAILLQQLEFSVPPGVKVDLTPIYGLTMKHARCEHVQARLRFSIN
Method: (§1) Selected compounds of the invention were assayed for their ability to inhibit various cytochrome P450 isozymes, such as, for example CYP2D6, CYP2C9, CYP1A2, CYP2C19, CYP3A4, CYP2C9, and CYP3A4 (human liver microsome). Such assays are described by Crespi et al., Anal. Biochem. 248:188-90, 1997; Ekins et al., J. Pharmacol. Exp. Ther. 290, 429-38, 1999; and Ekins et al., J. Pharmacol. Exp. Ther. 291, 424-33, 1999. In a typical isozyme inhibition experiment, test compounds are placed into a microwell on a microtiter plate as an 8 nL solution (2 mM in 75% DMSO/water). The plate is centrifuged for 2 minutes at approximately 1000 rpm to shift the compound to the bottom of the well. Polyvinylpyrrolidone (PVP/10K, 100 nL, 0.2% in 75% DMSO/water) is added to the well and this excipient also centrifuged for 2 minutes at approximately 1000 rpm to ensure mixing with the compound. The plates containing the wells are dried in vacuo. Distilled water (800 nL) is added to the wells containing compound, the background control wells, and the positive control wells, followed by the addition of 200 nL of phosphate buffer (500 mM potassium phosphate butter at pH=8.4). The positive control cells contain a drug such as, for example, miconazole. Insect baculosomes (PanVera P2315) in […] phosphate buffer was added to the background control wells and the plate was scanned for compound fluorescence. […] Therefore, CYP450 isozyme (400 nL) and recycling buffer (3.3 mM glucose-6-phosphate, 0.4 units/mL glucose-6-phosphate dehydrogenase, 100 mM MgCl2, and 0.00025% Antifoam 289) in 100 mM phosphate buffer was added to each well containing compound and background control to obtain the following concentrations: 5 nM CYP3A4, 10 nM CYP2C9, 5 nM CYP1A2, 5 nM CYP2C19, and 20 nM CYP2D6. After incubation for 60 minutes, the wells were read with a fluorescent plate reader.

CYP2C19 = CYP2C19 (Homo sapiens, UniProt P33261); experiment: as above; type: in vitro ADME; settings: 5 nM CYP2C19, 10 μM Vivid 2C19 Blue, 60 minutes
Method: as §1

CYP2C9 = CYP2C9 (Homo sapiens, UniProt P11712); experiment: as above; type: in vitro ADME; settings: 10 nM CYP2C9, 1 μM Vivid 2C9 Green, 60 minutes
Method: as §1

CYP2D6 = CYP2D6 (Homo sapiens, UniProt P10635); experiment: as above; type: in vitro ADME; settings: 20 nM CYP2D6, 10 μM Vivid 2D6 Blue, 60 minutes
Method: as §1

CYP3A4 = CYP3A4 (Homo sapiens, UniProt P08684); experiment: as above; type: in vitro ADME; settings: 5 nM CYP3A4, 5 μM Vivid 3A4 Red, 60 minutes
Method: Selected compounds of the invention were assayed for their ability to inhibit various cytochrome P450 isozymes, such as, for example CYP2D6, CYP2C9, CYP1A2, CYP2C19, CYP3A4, CYP2C9, and CYP3A4 (human liver microsome). Such assays are described by Crespi et al., Anal. Biochem. 248:188-90, 1997; Ekins et al., J. Pharmacol. Exp. Ther. 290, 429-38, 1999; and Ekins et al., J. Pharmacol. Exp. Ther. 291, 424-33, 1999. […] The plate is centrifuged for 2 minutes at approximately 1000 rpm to shift the compound to the bottom of the well. […] Distilled water (800 nL) is added to the wells containing compound, the background control wells, and the positive control wells, followed by the addition of 200 nL of phosphate buffer (500 mM potassium phosphate butter at pH=8.4). The positive control cells contain a drug such as, for example, miconazole. Insect baculosomes (PanVera […]) in […] phosphate buffer was added to the background control wells and the plate was scanned for compound fluorescence. […] After incubation for 60 minutes, the wells were read with a fluorescent plate reader.

[1] = target: T3, CYP3A4 (human liver microsome) (Homo sapiens, UniProt P08684); experiment: Cytochrome P450 inhibition, human liver microsome; type: in vitro ADME; settings: read-out: CYP3A4 (HLM) Ki
T3 construct: CYP3A4 (human liver microsome); from tissue; host or cells: human liver microsomes
Method: Selected compounds of the invention were assayed for their ability to inhibit various cytochrome P450 isozymes, such as, for example CYP2D6, CYP2C9, CYP1A2, CYP2C19, CYP3A4, CYP2C9, and CYP3A4 (human liver microsome). Such assays are described by Crespi et al., Anal. Biochem. 248:188-90, 1997; Ekins et al., J. Pharmacol. Exp. Ther. 290, 429-38, 1999; and Ekins et al., J. Pharmacol. Exp. Ther. 291, 424-33, 1999. […] The plate is centrifuged for 2 minutes at approximately 1000 rpm to shift the compound to the bottom of the well. […] Distilled water (800 nL) is added to the wells containing compound, the background control wells, and the positive control wells, followed by the addition of 200 nL of phosphate buffer (500 mM potassium phosphate butter at pH=8.4). The positive control cells contain a drug such as, for example, miconazole. […] After incubation for 60 minutes, the wells were read with a fluorescent plate reader.

T1 sequence (Q13464 6-553, species assumed): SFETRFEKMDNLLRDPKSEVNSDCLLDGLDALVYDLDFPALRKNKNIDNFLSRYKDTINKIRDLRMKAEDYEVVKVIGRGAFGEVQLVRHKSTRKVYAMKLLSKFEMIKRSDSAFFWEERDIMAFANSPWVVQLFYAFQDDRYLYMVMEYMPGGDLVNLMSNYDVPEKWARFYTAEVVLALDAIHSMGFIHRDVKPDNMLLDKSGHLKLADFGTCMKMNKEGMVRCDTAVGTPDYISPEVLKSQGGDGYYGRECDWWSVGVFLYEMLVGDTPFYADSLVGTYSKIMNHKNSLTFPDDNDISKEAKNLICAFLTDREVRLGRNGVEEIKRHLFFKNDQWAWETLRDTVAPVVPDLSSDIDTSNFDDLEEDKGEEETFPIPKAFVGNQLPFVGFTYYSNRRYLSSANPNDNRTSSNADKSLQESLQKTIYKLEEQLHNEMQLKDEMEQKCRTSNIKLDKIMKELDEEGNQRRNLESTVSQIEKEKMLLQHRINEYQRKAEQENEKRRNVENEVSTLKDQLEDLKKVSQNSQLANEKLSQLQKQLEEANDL
Chain of CYP2D6 (P10635 whole entry): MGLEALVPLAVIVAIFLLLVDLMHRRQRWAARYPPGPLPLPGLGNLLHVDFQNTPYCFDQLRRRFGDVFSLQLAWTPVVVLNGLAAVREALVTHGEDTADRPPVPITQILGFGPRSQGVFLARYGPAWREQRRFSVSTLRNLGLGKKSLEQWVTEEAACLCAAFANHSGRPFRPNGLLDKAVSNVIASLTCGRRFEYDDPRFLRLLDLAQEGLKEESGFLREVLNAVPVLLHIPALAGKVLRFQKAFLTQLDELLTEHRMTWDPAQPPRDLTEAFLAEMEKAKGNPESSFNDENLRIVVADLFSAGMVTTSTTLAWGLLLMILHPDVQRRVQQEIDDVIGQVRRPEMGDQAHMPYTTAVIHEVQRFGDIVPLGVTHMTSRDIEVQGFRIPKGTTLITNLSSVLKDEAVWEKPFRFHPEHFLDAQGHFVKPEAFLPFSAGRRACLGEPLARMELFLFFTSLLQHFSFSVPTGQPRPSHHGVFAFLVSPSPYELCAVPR
Chain of CYP2C9 (P11712 whole entry): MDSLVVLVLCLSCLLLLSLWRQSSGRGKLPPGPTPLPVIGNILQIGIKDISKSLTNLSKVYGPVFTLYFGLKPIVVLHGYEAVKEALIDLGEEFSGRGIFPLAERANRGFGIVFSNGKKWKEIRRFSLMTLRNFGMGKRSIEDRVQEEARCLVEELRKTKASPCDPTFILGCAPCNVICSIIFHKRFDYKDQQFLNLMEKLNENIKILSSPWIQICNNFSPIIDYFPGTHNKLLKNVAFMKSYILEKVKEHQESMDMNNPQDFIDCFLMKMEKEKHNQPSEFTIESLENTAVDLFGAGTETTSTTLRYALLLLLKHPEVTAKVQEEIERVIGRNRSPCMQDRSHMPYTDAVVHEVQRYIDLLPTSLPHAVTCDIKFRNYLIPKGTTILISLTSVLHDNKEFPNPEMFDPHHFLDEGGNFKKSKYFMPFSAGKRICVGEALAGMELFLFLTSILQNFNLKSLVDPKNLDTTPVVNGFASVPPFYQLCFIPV
Chain of CYP2C19 (P33261 whole entry): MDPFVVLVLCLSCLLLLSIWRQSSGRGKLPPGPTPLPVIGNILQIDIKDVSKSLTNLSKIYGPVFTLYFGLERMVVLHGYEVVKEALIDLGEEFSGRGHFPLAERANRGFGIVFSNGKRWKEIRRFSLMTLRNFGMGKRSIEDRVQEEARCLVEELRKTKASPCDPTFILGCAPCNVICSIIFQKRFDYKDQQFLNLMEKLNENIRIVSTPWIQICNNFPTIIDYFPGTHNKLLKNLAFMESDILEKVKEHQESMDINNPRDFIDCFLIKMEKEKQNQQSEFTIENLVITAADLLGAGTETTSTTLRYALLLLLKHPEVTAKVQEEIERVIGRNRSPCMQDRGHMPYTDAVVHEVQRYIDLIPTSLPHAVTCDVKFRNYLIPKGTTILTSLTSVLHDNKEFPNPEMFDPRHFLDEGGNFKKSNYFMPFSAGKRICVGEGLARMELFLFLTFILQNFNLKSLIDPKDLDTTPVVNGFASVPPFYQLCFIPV
T3 sequence (P08684 whole entry): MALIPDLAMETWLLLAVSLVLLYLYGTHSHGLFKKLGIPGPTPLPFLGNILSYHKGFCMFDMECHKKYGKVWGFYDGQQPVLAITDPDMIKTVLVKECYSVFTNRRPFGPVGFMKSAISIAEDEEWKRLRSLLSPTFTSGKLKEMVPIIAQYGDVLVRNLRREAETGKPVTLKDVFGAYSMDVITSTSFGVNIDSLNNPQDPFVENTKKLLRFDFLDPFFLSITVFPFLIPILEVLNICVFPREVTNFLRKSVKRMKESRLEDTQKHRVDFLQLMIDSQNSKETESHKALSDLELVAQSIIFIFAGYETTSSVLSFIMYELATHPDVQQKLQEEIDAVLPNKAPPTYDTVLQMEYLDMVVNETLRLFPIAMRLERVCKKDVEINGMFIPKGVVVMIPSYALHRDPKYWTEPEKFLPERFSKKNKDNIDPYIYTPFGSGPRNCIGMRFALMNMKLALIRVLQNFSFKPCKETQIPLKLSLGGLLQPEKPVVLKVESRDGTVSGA
Chain of CYP3A4 (P08684 whole entry): as above

Compound | Ki (ROCK I (AA 6-553)) | Ki (CYP1A2) | Ki (CYP2C19) | Ki (CYP2C9) | Ki (CYP2D6) | Ki (CYP3A4) | Ki [1]
Cc1cc(-c2csc(NC(=O)Cc3cccc(O)c3)c2)ccn1 [Compound 85] | < 0.1 µM | > 10 µM | 1 to 10 µM | > 10 µM | > 10 µM | > 10 µM | > 10 µM
O=C(Cc1cc2c(cc1Cl)OCO2)Nc1cc(-c2ccnc(Cl)c2)cs1 [Compound 105] | < 0.1 µM | 1 to 10 µM | < 1 µM | 1 to 10 µM | < 1 µM | 1 to 10 µM | 1 to 10 µM
O=C(Cc1cccc(OCCCN2CCNCC2)c1)Nc1cc(-c2ccnc(Cl)c2)cs1 [Compound 102] | < 0.1 µM | > 10 µM | 1 to 10 µM | > 10 µM | > 10 µM | 1 to 10 µM | > 10 µM
Nc1cc(-c2csc(NC(=O)Cc3cccc(OCCCC4CCNCC4)c3)c2)ccn1 [Compound 77] | < 0.1 µM | > 10 µM | 1 to 10 µM | 1 to 10 µM | < 1 µM | 1 to 10 µM | 1 to 10 µM

Next, values leading:

Ki (ROCK I (AA 6-553)) | Ki (CYP1A2) | Ki (CYP2C19) | Ki (CYP2C9) | Ki (CYP2D6) | Ki (CYP3A4) | Ki [1] | Compound
< 0.1 µM | > 10 µM | > 10 µM | > 10 µM | > 10 µM | > 10 µM | > 10 µM | CN1CCN(CCCOc2cccc(CC(=O)Nc3cc(-c4ccnc(F)c4)cs3)c2)CC1 [Compound 74]
< 0.1 µM | > 10 µM | > 10 µM | > 10 µM | > 10 µM | > 10 µM | > 10 µM | CN1CCN(CCCOc2cccc(CC(=O)Nc3cc(-c4ccnc(Cl)c4)cs3)c2)CC1 [Compound 103]
